Measurements from publication PMC12064607 (Clinical Pharmacokinetics, 2025).
Where two headings read alike, the source gives them in different places.

Columns and labels:
SARS-CoV-2 variants [1] = details: cited from earlier work
SARS-CoV-2 variants [2] = experiment: microbe, parasite or virus in culture
[3] = Severe acute respiratory syndrome coronavirus 2, read-out: highest EC50 reported in the literature, corrected for plasma protein binding
[4] = Severe acute respiratory syndrome coronavirus 2, read-out: highest EC90 reported in the literature, corrected for plasma protein binding
[5] = Severe acute respiratory syndrome coronavirus 2, read-out: lowest EC50 reported in the literature, corrected for plasma protein binding
[6] = Severe acute respiratory syndrome coronavirus 2, read-out: lowest EC90 reported in the literature, corrected for plasma protein binding

Row | SMILES | EC50 (SARS-CoV-2 variants [1]) [nM] | EC90 (SARS-CoV-2 variants [1]) [nM] | EC50 (SARS-CoV-2 variants [2]; [3]) [nM] | EC90 (SARS-CoV-2 variants [2]; [4]) [nM] | EC50 (SARS-CoV-2 variants [2]; [5]) [nM] | EC90 (SARS-CoV-2 variants [2]; [6]) [nM]
1 | N#C[C@@]1(c2ccc3c(N)ncnn23)O[C@H](CO)[C@@H](O)[C@H]1O [GS-441524] | 80 to 5600 | 710 to 3900 | 5710 | 3980 | 80 | 720
2 | CCC(CC)COC(=O)[C@H](C)N[P@](=O)(OC[C@H]1O[C@@](C#N)(c2ccc3c(N)ncnn23)[C@H](O)[C@@H]1O)Oc1ccccc1 [Remdesivir, reference compound] | 1 to 1700 | 22 to 3100 | 14200 | 25800 | 8 | 180
